{(RXR)4XB} = cell-penetrating peptide (RXR)4XB; {Ac} = acetyl (COCH3) cap

Common to all, as to assay type: cell-based, Pseudomonas aeruginosa
The test system of one series is P. aeruginosa PAO1. The experiment in a line: MIC of Ampicillin as a function of AmpR PPMO and PMBN concentration. From the text:
An AmpR PPMO combined with PMBN restores activity of Ampicillin in P. aeruginosa PAO1.
The ability to use PPMOs as adjunctive therapeutics to restore antibiotic sensitivity to existing drugs could be an intriguing way to explore treatment of multidrug-resistant pathogens that are increasingly being found in chronically infected patients. Frequently encountered resistance genes (β-lactamases, efflux pumps) were targeted. […] An exemplary PPMO, as set forth in Table 5 and illustrated below, was designed to target AmpR in P. aeruginosa, a global transcriptional regulator that regulates β-lactamases such as AmpC. […] Testing the AmpR PPMO in animal models would be a reasonable alternative approach to thinking of antisense as adjuvant therapy with traditional antibiotics.

Series [1] deals with P. aeruginosa PAO1 biofilm. Kind of series: Biofilm prevention in MBEC plate (crystal violet). The settings on record: 5 μM PPMO, 2 μg/mL PMBN, MHII, 20 hours; one-way ANOVA p<0.0001. Here is the method:
P. aeruginosa PAO1 (5×10^5 cfu/mL) was grown in MHII media in an MBEC plate for 20 hours either alone or in the presence of 5 μM of the indicated PPMOs, PMBN alone, (RXR)4, or a scrambled PPMO. All conditions contained 2 μg/mL of PMBN unless indicated otherwise. Pegs were processed for crystal violet or visualized by microscopy at 20 hours. […] FIGS. 6B-6D: Spinning Disk confocal microscopy images of 20 hour biofilm treated with (FIG. 6B) No PPMO, (FIG. 6C) 5 μM Scr PPMO #41, (FIG. 6D) 5 μM RpsJ PPMO #14. PAO1 GFP is shown in green and biofilm is shown in red. The biofilm is stained with 200 μg/mL of Concanavalin A, Alexafluor 647 conjugate.
Pseudomonas aeruginosa Biofilm Prevention in MBEC Plate Protocol
• 1. 10 mL of MH is inoculated with a single colony and incubated at 37° C. and ˜250 rpm for about 5 hours. • 2. The sample is centrifuged for 10 minutes at ˜4000 rpm at 4° C., the supernatant is decanted and the pellet resuspended in 10 mL of 150 mM NaCl or PBS. This step is repeated to wash the pellet 3 times. • 3. The sample is resuspended in 10 mL 150 mM NaCl or PBS. • 4. The OD600 of the sample is taken and cfu/mL is calculated. (OD600 usually between 0.65-0.80). • 5. A Bacterial Working Solution (BWS) is made by inoculating 10 mL of MH to 5×10^5 cfu/mL final concentration. • 6. 2 μL/mL of 1 mg/mL stock PMBN is added to the BWS and vortexed 3 times. • 7. 1 mL of BWS is pipetted into each separate Eppendorf tube for each condition that is tested. • 8. An appropriate amount of PPMO is added to each Eppendorf tube and vortexed 3 times. • 9. Outside wells are filled with fresh MH, NaCl, or PBS to keep the outer pegs from drying out. • 10. One column of the MBEC plate is filled with 150 μL per well from each Eppendorf tube (one condition per column). • 11. Pegs are placed into the MBEC plate and the edges covered with a breathable membrane. • 12. The MBEC plate is incubated for 18-20 hours at 37° C. and 110 rpm. Day 2:
1. […] The final OD570 of the 10× dilution of solution should be approximately 0.500 absorbance. […]
2. OD reading: The OD570 for the 96-well plate from step 1e is determined. […]

For series [2], the system named is P. aeruginosa strains that are multidrug resistant (strain T63547). The experiment in a line: MIC in multidrug resistant P. aeruginosa strains. The settings on record: strain T63547 (CF sputum; resistant to extended-spectrum penicillins, cephalosporins, quinolones, carbapenems). As for the experimental part:
In addition, MIC values of 8 μM or less in P. aeruginosa strains that are multidrug resistant have been achieved. For example, strain T63547 was isolated from the sputum of a CF patient and was resistant to extended-spectrum penicillins, cephalosporins, quinolones and carbapenems. The RpsJ PPMOs and the RpmB PPMO had MIC values of 4 μM. PPMOs also retained activity in mucoid strains of P. aeruginosa (such as strain H27925; CF sputum sample). This is a critically important finding, as mucoid Pseudomonas poses significant treatment challenges.

Series [3] deals with panel of P. aeruginosa clinical isolates. The experiment in a line: MIC of PPMOs with sub-inhibitory concentrations of Colistin (polymyxin E). Conditions: Colistin alone at either 1 or 0.5 μg/ml (depending on the strain). As for the experimental part: MICs are indicated by color and numerical value as in FIG. 1. All MICs were performed in the presence of 1 μg/mL of Colistin unless otherwise noted (*Strains with an asterisk were tested with 0.5 μg/mL of Colistin).
The overnight culture is plated to determine CFU/ml of starting inoculum. From the overnight culture 4 μl is taken into 10 ml of fresh medium and mixed well to obtain a bacterial working suspension. From the 10 ml, 50 μl is taken into 450 μl of saline. Serial dilutions of 10^−2, 10^−3 and 10^−4 are plated on BA. If Polymyxin B Nonapeptide (PMBN) is to be added, 4 μl/ml of PMBN is added from a stock of 1 mg/ml (in water) to the bacterial suspension for a 4 μg/ml final PMBN concentration.
For every PPMO to be tested, the following is done: 6.8 μl of a 1 mM PPMO stock is added to 413.2 μl of bacterial working suspension and vortexed. 200 μl is placed in the first row (A) of a 96-well plate in duplicate. 100 μl of bacterial working suspension is added to rows B thru F. Row A is mixed well by pipetting 10 times. Then 100 μl from each well of row A is added to the 100 μl of bacterial working suspension in each well of row B and mixed well 10 times. Serial dilutions are continued in the same manner through to row F. Finally, 100 μl in the last row is removed and discarded. […]
The plate is read in a plate reader to measure OD600. […]

In the case of `CC1(C)S[C@@H]2[C@H](NC(=O)[C@H](N)c3ccccc3)C(=O)N2[C@H]1C(=O)O` [Ampicillin, ampicillin, reference compound], in the series on P. aeruginosa PAO1 (Pseudomonas aeruginosa, PAO1, in the absence of PPMO), the MIC stood at 512 µg/mL.
Regarding “PPMO #2: LpxC PMO GTTGTTTGATC, 5′ TEG, 3′ (RXR)4XB CPP”, the “prevention of biofilm (crystal violet)” value in series [1] is “statistically significant prevention of biofilm”.
Take “PPMO #5: RpmB PMO CTCTAGACATG, 5′ TEG, 3′ (RXR)4XB CPP”: the MIC in series [2] came out at 4 µM. The “prevention of biofilm (crystal violet)” value in series [1] was “statistically significant prevention of biofilm”.
With “PPMO #28: ampR PMO GTCGAACCAAT, 5′ (RXR)4XB CPP, 3′ COCH3 (all phosphorodiamidate morpholino (PMO), 5' {(RXR)4XB}, 3' {Ac})”, the “MIC of Ampicillin” value in the series with P. aeruginosa PAO1 (in the presence of 32 μM AmpR PPMO and 4 μg/ml PMBN) is 4 µg/mL.
As to polymyxin E [Colistin], in series [3], the “growth inhibition by Colistin alone” value is reported as “did not inhibit growth”.

The values are drawn from patent US11293024B2, “Antisense antibacterial compounds and methods” (priority 2014, dated 2022).
